pEC50: −log10 of the molar value.
Experiments:
OCI-LY10 cells = test: OCI-LY-10 CTG cell viability assay (EC50); format: cell-based; conditions: Homo sapiens, 96 h, CellTiter-Glo cell viability, 4 days incubation, top concentration 10 μM, read-out: OCI-LY10 IRAK4 EC50
Method: A CTG cell viability assay using OCI-LY-10 cells was run to determine compound-mediated cell viability (EC50).
Compound-mediated viability effect on OCI-LY10 was quantitatively determined using the CellTiter-Glo® Luminescent Cell Viability Assay kit from Promega (Catalog number G7570) following manufacturer's recommended procedures. […] Compounds were then added to the assay plate with final top concentration of 10 μM and 1:3 dilution series with total of 9 doses. The final DMSO concentration was normalized to 0.2%. The assay plates were incubated at 37° C. for 4 days under 5% CO2. Then the assay plate was equilibrated at room temperature for 10 minutes. […] The data was then analyzed by software Prism 7.0 from GraphPad and the dose response curves were fit using a three-parameter logistic equation to calculate EC50.

IRAK4 = biological target: T1, IRAK4 (Homo sapiens, UniProt Q9NWZ3); test: OCI-LY-10 MSD assay for IRAK4 DC50; format: cell-based; set-up: endogenous in cells; host or cells: OCI-LY10; conditions: OCI-LY10 cells, 4 hr incubation, concentration required to degrade 50% of protein
T1 sequence (Q9NWZ3 1-460): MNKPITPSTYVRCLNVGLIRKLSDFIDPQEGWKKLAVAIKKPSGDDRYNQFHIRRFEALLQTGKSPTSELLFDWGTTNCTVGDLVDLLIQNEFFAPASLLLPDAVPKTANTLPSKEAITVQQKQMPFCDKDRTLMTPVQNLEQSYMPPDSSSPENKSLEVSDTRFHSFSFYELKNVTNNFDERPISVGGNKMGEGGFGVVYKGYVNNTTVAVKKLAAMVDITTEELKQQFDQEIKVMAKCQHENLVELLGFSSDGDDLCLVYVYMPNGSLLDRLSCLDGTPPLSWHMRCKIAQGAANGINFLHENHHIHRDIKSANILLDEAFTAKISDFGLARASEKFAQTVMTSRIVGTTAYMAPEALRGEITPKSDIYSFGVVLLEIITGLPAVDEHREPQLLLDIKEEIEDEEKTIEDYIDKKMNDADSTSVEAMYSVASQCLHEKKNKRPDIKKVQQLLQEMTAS
In short: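 OCI-Ly10 cells were exposed to compound for 4 hr across a 3-fold, 8-point dilution series. Lysates were made in RIPA buffer, and IRAK4 remaining was measured by MSD sandwich immunoassay with anti-IRAK4 capture and detection antibodies. DC50 was taken from a four-parameter logistic fit.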

Cn1c(=O)n([C@H]2CCC(=O)NC2=O)c2ccc(CCCCOCCCCNCc3ccc(-n4cc(NC(=O)c5coc(-c6ccnc(NCC7CC7)c6)n5)c(C(F)F)n4)cc3)cc21 (single isomer, unassigned) [I-699]
pEC50 (OCI-LY10 cells): > 7.30 | DC50 (IRAK4): 0.1 to 0.5 µM

Cn1c(=O)n([C@@H]2CCC(=O)NC2=O)c2ccc(CCCCOCCCCNCc3ccc(-n4cc(NC(=O)c5coc(-c6ccnc(NCC7CC7)c6)n5)c(C(F)F)n4)cc3)cc21 (single isomer, unassigned) [I-700]
pEC50 (OCI-LY10 cells): 7.00 to 7.30 | DC50 (IRAK4): < 0.05 µM

Cn1cc(NC(=O)c2coc(-c3ccnc(NCC(F)(F)F)c3)n2)c(C(=O)NCCOCCOCCOCCOCCOCCNc2cccc3c2C(=O)N(C2CCC(=O)NC2=O)C3=O)n1 (stereo not shown) [I-449]
pEC50 (OCI-LY10 cells): < 6.00 | DC50 (IRAK4): > 1 µM

Cn1cc(NC(=O)c2cnn3ccc(N4CCN(C(=O)COCCOCCOCCOCCCc5cccc6c5n(C)c(=O)n6C5CCC(=O)NC5=O)CC4)nc23)c(C(F)F)n1 (stereo not shown) [I-465]
pEC50 (OCI-LY10 cells): < 6.00

Cn1cc(NC(=O)c2cnn3ccc(N4CCN(C(=O)COCCOCCOCCOCCCc5ccc6c(c5)n(C)c(=O)n6C5CCC(=O)NC5=O)CC4)nc23)c(C(F)F)n1 (stereo not shown) [I-466]
pEC50 (OCI-LY10 cells): < 6.00

Cn1cc(NC(=O)c2cnn3ccc(N4CCN(C(=O)COCCOCCOCCOCCNc5cccc6c5C(=O)N(C5CCC(=O)NC5=O)C6=O)CC4)nc23)c(C(F)F)n1 (stereo not shown) [I-467]
pEC50 (OCI-LY10 cells): < 6.00

Cn1cc(NC(=O)c2cnn3ccc(N4CCN(C(=O)COCCOCCOCCNc5cccc6c5C(=O)N(C5CCC(=O)NC5=O)C6=O)CC4)nc23)c(C(F)F)n1 (stereo not shown) [I-468]
pEC50 (OCI-LY10 cells): < 6.00

Cn1cc(NC(=O)c2cnn3ccc(N4CCN(C(=O)COCCOCCCc5ccc6c(c5)n(C)c(=O)n6C5CCC(=O)NC5=O)CC4)nc23)c(C(F)F)n1 (stereo not shown) [I-469]
pEC50 (OCI-LY10 cells): < 6.00

Cn1cc(NC(=O)c2cnn3ccc(N4CCNCC4)nc23)c(C(=O)NCCOCCOCCOCCNc2cccc3c2C(=O)N(C2CCC(=O)NC2=O)C3=O)n1 (stereo not shown) [I-471]
pEC50 (OCI-LY10 cells): < 6.00

CN1CCN(C(=O)c2nn(-c3ccc(C(=O)NCCCCOCCCCc4ccc5c(c4)n(C)c(=O)n5C4CCC(=O)NC4=O)cc3)cc2NC(=O)c2coc(-c3ccnc(NCC(F)(F)F)c3)n2)CC1 (stereo not shown) [I-481]
pEC50 (OCI-LY10 cells): 7.00 to 7.30

CN(C)CCNC(=O)c1nn(-c2ccc(C(=O)NCCCCOCCCCc3ccc4c(c3)n(C)c(=O)n4C3CCC(=O)NC3=O)cc2)cc1NC(=O)c1coc(-c2ccnc(NCC(F)(F)F)c2)n1 (stereo not shown) [I-482]
pEC50 (OCI-LY10 cells): 6.30 to 7.00

Cc1ncsc1-c1ccc(CNC(=O)[C@@H]2C[C@@H](O)CN2C(=O)[C@@H](NC(=O)CCCCCCCCCCC(=O)N2CCN(c3ccn4ncc(C(=O)Nc5cn(C)nc5C(F)F)c4n3)CC2)C(C)(C)C)cc1 [I-483]
pEC50 (OCI-LY10 cells): < 6.00

Cc1ncsc1-c1ccc(CNC(=O)[C@@H]2C[C@@H](O)CN2C(=O)[C@@H](NC(=O)COCCOCCOCCOCCOCC(=O)N2CCN(c3ccn4ncc(C(=O)Nc5cn(C)nc5C(F)F)c4n3)CC2)C(C)(C)C)cc1 [I-484]
pEC50 (OCI-LY10 cells): < 6.00

Cc1ncsc1-c1ccc(CNC(=O)[C@@H]2C[C@@H](O)CN2C(=O)[C@@H](NC(=O)COCCOCCOCC(=O)N2CCN(c3ccn4ncc(C(=O)Nc5cn(C)nc5C(F)F)c4n3)CC2)C(C)(C)C)cc1 [I-485]
pEC50 (OCI-LY10 cells): < 6.00

CN(CCCOCCCc1ccc2c(c1)n(C)c(=O)n2C1CCC(=O)NC1=O)C(=O)c1ccc(-n2cc(NC(=O)c3coc(-c4ccnc(NCC(F)(F)F)c4)n3)c(C(N)=O)n2)cc1 (stereo not shown) [I-494]
pEC50 (OCI-LY10 cells): < 6.00

CN1C(=O)CCC(n2c(=O)n(C)c3c(CCCOCCOCCNC(=O)c4ccc(-n5cc(NC(=O)c6coc(-c7ccnc(NCC8CC8)c7)n6)c(C(F)F)n5)cc4)cccc32)C1=O (stereo not shown) [I-515]
pEC50 (OCI-LY10 cells): 6.00 to 6.30

Cc1ncsc1-c1ccc(CNC(=O)[C@@H]2C[C@@H](O)CN2C(=O)[C@@H](NCCOCCOCCOCCNCc2nn(C)cc2NC(=O)c2coc(-c3ccnc(NCC(F)(F)F)c3)n2)C(C)(C)C)cc1 [I-524]
pEC50 (OCI-LY10 cells): < 6.00

CN(CC(=O)N(C)CC(=O)N(C)CC(=O)N(C)CCCc1ccc2c(c1)n(C)c(=O)n2C1CCC(=O)NC1=O)Cc1ccc(-n2cc(NC(=O)c3coc(-c4ccnc(NCC(F)(F)F)c4)n3)c(C(N)=O)n2)cc1 (stereo not shown) [I-526]
pEC50 (OCI-LY10 cells): < 6.00

Cn1c(=O)n(C2CCC(=O)NC2=O)c2cccc(CCCOCCOCCNCc3ccc(-n4cc(NC(=O)c5cc(C#N)ccn5)c(C(N)=O)n4)cc3)c21 (stereo not shown) [I-527]
pEC50 (OCI-LY10 cells): < 6.00

Cn1c(=O)n(C2CCC(=O)NC2=O)c2cccc(CCCOCCOCCNCc3ccc(-n4cc5c(n4)CCCN5C(=O)c4coc(-c5ccnc(NCC(F)(F)F)c5)n4)cc3)c21 (stereo not shown) [I-528]
pEC50 (OCI-LY10 cells): < 6.00

Cn1c(=O)n(C2CCC(=O)NC2=O)c2ccc(CCCOCCNCc3ccc(-n4cc(NC(=O)c5coc(-c6ccnc(NCC7CC7)c6)n5)c(C(F)F)n4)cc3)cc21 (stereo not shown) [I-531]
pEC50 (OCI-LY10 cells): > 7.30

Cn1c(=O)n(C2CCC(=O)NC2=O)c2cccc(CCCOCCNCc3ccc(-n4cc(NC(=O)c5coc(-c6ccnc(NCC(F)(F)F)c6)n5)c(C(F)F)n4)cc3)c21 (stereo not shown) [I-533]
pEC50 (OCI-LY10 cells): 6.00 to 6.30

N#Cc1nn(-c2ccc(CNCCOCCOCCCc3ccc4c(c3)oc(=O)n4C3CCC(=O)NC3=O)cc2)cc1NC(=O)c1coc(-c2ccnc(NCC3CC3)c2)n1 (stereo not shown) [I-538]
pEC50 (OCI-LY10 cells): < 6.00

Cn1c(=O)n(C2CCC(=O)NC2=O)c2ccc(CCCC(C)(O)CCCNCc3ccc(-n4cc(NC(=O)c5coc(-c6ccnc(NCC7CC7)c6)n5)c(C(F)F)n4)cc3)cc21 (stereo not shown) [I-540]
pEC50 (OCI-LY10 cells): > 7.30

Cn1cc(NC(=O)c2coc(-c3ccnc(NCC(F)(F)F)c3)n2)c(-c2cncc(CNCCOCCOCCCc3cccc4c3n(C)c(=O)n4C3CCC(=O)NC3=O)c2)n1 (stereo not shown) [I-541]
pEC50 (OCI-LY10 cells): < 6.00

CN1C(=O)CCC(n2c(=O)n(C)c3c(CCCOCCOCCNCc4ccc(-n5cc(NC(=O)c6coc(-c7ccnc(NCC(F)(F)F)c7)n6)c(C(N)=O)n5)cc4)cccc32)C1=O (stereo not shown) [I-544]
pEC50 (OCI-LY10 cells): < 6.00

CN(C)CCNC(=O)c1nn(-c2ccc(CNCCCCOCCCCc3ccc4c(c3)n(C)c(=O)n4C3CCC(=O)NC3=O)cc2)cc1NC(=O)c1coc(-c2ccnc(NCC(F)(F)F)c2)n1 (stereo not shown) [I-560]
pEC50 (OCI-LY10 cells): < 6.00

Cn1c(=O)n(C2CCC(=O)NC2=O)c2ccc(CNC(=O)OCCCNCc3ccc(-n4cc(NC(=O)c5coc(-c6ccnc(NCC(F)(F)F)c6)n5)c(C(N)=O)n4)cc3)cc21 (stereo not shown) [I-563]
pEC50 (OCI-LY10 cells): < 6.00

Cn1c(=O)n(C2CCC(=O)NC2=O)c2ccc(CCCN3CCO[C@H](CNCc4ccc(-n5cc(NC(=O)c6coc(-c7ccnc(NCC8CC8)c7)n6)c(C(F)F)n5)cc4)C3)cc21 (stereo partly shown) [I-573]
pEC50 (OCI-LY10 cells): < 6.00

Cn1c(=O)n(C2CCC(=O)NC2=O)c2ccc(CCCN3CCO[C@@H](CCNCc4ccc(-n5cc(NC(=O)c6coc(-c7ccnc(NCC(F)(F)F)c7)n6)c(C(N)=O)n5)cc4)C3)cc21 (stereo partly shown) [I-575]
pEC50 (OCI-LY10 cells): 6.30 to 7.00

CN(CCCCOCCCCc1ccc2c(c1)n(C)c(=O)n2C1CCC(=O)NC1=O)Cc1ccc(-n2cc(NC(=O)c3coc(-c4ccnc(NCC(F)(F)F)c4)n3)c(C(N)=O)n2)cc1 (stereo not shown) [I-578]
pEC50 (OCI-LY10 cells): 6.00 to 6.30

O=C1CCC(N2C[C@H](c3cccc(C#CCCOCCCNCc4ccc(-n5cc(NC(=O)c6coc(-c7ccnc(NCC8CC8)c7)n6)c(C(F)F)n5)cc4)c3)OC2=O)C(=O)N1 (stereo partly shown) [I-581]
pEC50 (OCI-LY10 cells): 6.30 to 7.00

Cn1c(=O)n(C2CCC(=O)NC2=O)c2ccc(C#CCCN3CCC(CNCc4ccc(-n5cc(NC(=O)c6coc(-c7ccnc(NCC8CC8)c7)n6)c(C(F)F)n5)cc4)CC3)cc21 (stereo not shown) [I-582]
pEC50 (OCI-LY10 cells): > 7.30

O=C1CCC(n2c3ccc(NCCOCCOCCNCc4ccc(-n5cc(NC(=O)c6coc(-c7ccnc(NCC8CC8)c7)n6)c(C(F)F)n5)cc4)cc3c3cccnc32)C(=O)N1 (stereo not shown) [I-595]
pEC50 (OCI-LY10 cells): 7.00 to 7.30

CN1C(=O)CCC(n2c(=O)n(C)c3c(CCCOCCOCCNCc4ccc(-n5cc(NC(=O)c6coc(-c7ccnc(NCC8CC8)c7)n6)c(C(F)F)n5)cc4)cccc32)C1=O (stereo not shown) [I-596]
pEC50 (OCI-LY10 cells): < 6.00

COCCOCCNCc1ccc(-n2cc(NC(=O)c3coc(-c4ccnc(NCC(F)(F)F)c4)n3)c(C(N)=O)n2)cc1 [I-597]
pEC50 (OCI-LY10 cells): 6.30 to 7.00

CN(Cc1ccc(-n2cc(NC(=O)c3coc(-c4ccnc(NCC5CC5)c4)n3)c(C(F)F)n2)cc1)C[C@H]1CN(CCCc2ccc3c(c2)n(C)c(=O)n3C2CCC(=O)NC2=O)CCO1 (stereo partly shown) [I-598]
pEC50 (OCI-LY10 cells): > 7.30

Cn1c(=O)n(C2CCC(=O)NC2=O)c2ccc(CCCN3CCO[C@@H](CNCc4ccc(-n5cc(NC(=O)c6cnn7ccc(N8CCNCC8)nc67)c(C(F)F)n5)cc4)C3)cc21 (stereo partly shown) [I-617]
pEC50 (OCI-LY10 cells): 6.00 to 6.30

Cn1c(=O)n(C2CCC(=O)NC2=O)c2cccc(C#CCOCCOCCn3cc4cc(NC(=O)c5cccc(C(F)(F)F)n5)c(C(C)(C)O)cc4n3)c21 (stereo not shown) [I-688, N-[2-[2-[2-[3-[1-(2,6-dioxo-3-piperidyl)-3-methyl-2-oxo-benzimidazol-4-yl]prop-2-ynoxy]ethoxy]ethyl]-6-(1-hydroxy-1-methyl-ethyl)indazol-5-yl]-6-(trifluoromethyl)pyridine-2-carboxamide]
pEC50 (OCI-LY10 cells): < 6.00

Cn1ncc2nc(Nc3cnn(CCOCCOCCOCCNc4cccc5c4C(=O)N(C4CCC(=O)NC4=O)C5=O)c3)nc(NC3CCC(N4CCOCC4)CC3)c21 (stereo not shown) [I-691]
pEC50 (OCI-LY10 cells): < 6.00
